Values after ≈ are worked out from the molar mass of the structure shown.
Key:
[1] = molecular target: T1, cytochrome P450 2C8-isoenzyme (Homo sapiens, UniProt P10632); assay: Inhibition of CYP-2C8 (amodiaquine deethylation, human liver microsomes); type: in vitro ADME; conditions: human liver microsomes 0.05 mg/mL, amodiaquine 1 μM, 37° C.
T1 construct: is assayed at 37° C. with human liver microsomes; from tissue; host or cells: human liver microsomes
T1 sequence (P10632 1-490): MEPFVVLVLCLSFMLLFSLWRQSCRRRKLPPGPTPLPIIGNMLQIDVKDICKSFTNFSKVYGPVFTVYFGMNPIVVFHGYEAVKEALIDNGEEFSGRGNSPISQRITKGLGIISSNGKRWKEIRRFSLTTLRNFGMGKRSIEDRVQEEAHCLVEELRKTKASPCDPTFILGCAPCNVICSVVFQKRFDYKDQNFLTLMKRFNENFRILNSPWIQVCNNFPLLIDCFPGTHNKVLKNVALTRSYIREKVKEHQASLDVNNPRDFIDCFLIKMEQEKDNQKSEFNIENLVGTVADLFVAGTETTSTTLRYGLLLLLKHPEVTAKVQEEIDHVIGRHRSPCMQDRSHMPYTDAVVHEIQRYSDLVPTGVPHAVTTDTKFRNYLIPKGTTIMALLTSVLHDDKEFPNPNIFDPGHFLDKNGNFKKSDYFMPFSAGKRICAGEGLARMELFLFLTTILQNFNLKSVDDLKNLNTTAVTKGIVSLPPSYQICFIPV
Method: All assays are carried out on a robotic system in 96 well plates. The final incubation volume contains TRIS buffer (0.1 M), MgCl2 (5 mM), human liver microsomes (0.05 mg/mL), amodiaquine (1 μM) and the test compound at five different concentrations or no compound (high control) in duplicate (e.g. highest concentration 10-50 μM with subsequent serial 1:4 dilutions). Following a short preincubation period, reactions are started with the cofactor (NADPH, 1 mM) and stopped by cooling the incubation down to 8° C. and subsequently by addition of one volume of acetonitrile. An internal standard solution—the stable isotope d5-desethylamodiaquine—is added after quenching of incubations. Peak area analyte (=metabolite formed) and internal standard is determined by LC-MS/MS. The resulting peak area ratio analyte to internal standard in these incubations is compared to a control activity containing no test compound. Within each of the assay runs, the IC50 of a positive control inhibitor (Montelukast) is determined. Experimental IC50 values are calculated by least square regression according to the following equation: % control activity=(100% control activity/(1+(I/IC50)S))−B with I=inhibitor concentration; S=slope factor; B=background activity (lower plateau of the inhibition curve) If the inhibition of the reaction is already >50% at the lowest concentration of the test compound, the IC50 is assigned “<lowest concentration tested” (usually <0.4 μM). If the inhibition of the reaction is still <50% at the highest concentration of the test compound, the IC50 is assigned “>highest concentration tested” (usually >50 μM).

[2] = Chemical stability (degradation kinetics) in acidic aqueous media, HPLC; type: physicochemical; conditions: acetonitrile/0.1 M aqueous HCl (2:3), pH ca. 1.2, 37° C.
Method: Degradation kinetics is used to simulate chemical stability of compounds in the acidic part of the gastro intestinal tract. […] Their application as medical drugs to treat human diseases is therefore less restricted and troublesome. The chemical stability of the compounds of the invention at pH value of ca. 1.2 is determined as follows: Compound is dissolved in an HPLC vial either in a mixture of acetonitrile/0.1 M aqueous HCl (2:3; pH ca. 1.2) or in a mixture of acetonitrile/McIlvaine buffer pH 7.4 (2:3) to get a concentration of approximately 0.25 mg/ml. The vial was then transferred into an HPLC autosampler system and maintained at a temperature of 37° C. A first sample is taken and injected immediately into a standard HPLC system with a UV DAD detector. Further samples are injected after 2, 4, 6, 8 and 10 hours. Degradation of the compound is measured by determining the recovery rate of compound [%] for each injection using an HPLC standard gradient method. Therefore the peak area of the main peak for the first injection (AUt0) is determined and set as 100%. Peak area of the main peak is determined also for the further injections (AUtn, n=2, 4, 6, 8, 10) and expressed as fraction of […][%].

[3] = Aqueous solubility from DMSO stock, LC-UV; type: physicochemical; conditions: aqueous buffer, kinetic from dmso stock; buffer pH 2.2, 24 h shaking, 2.5% DMSO
Method: The aqueous solubility of the compounds of the invention is determined by comparing the amount dissolved in buffer to the amount in an acetonitrile/water (1/1) solution. Starting from a 10 mM DMSO stock solution aliquots are diluted with acetonitrile/water (1/1) or buffer, respectively. After 24 h of shaking, the solutions are filtrated and analyzed by LC-UV. The amount dissolved in buffer is compared to the amount in the acetonitrile solution. Solubility is usually being measured from 0.001 to 0.125 mg/mL at a DMSO concentration of 2.5%. If more than 90% of the compound is dissolved in buffer, the value is marked with “>”.

[4] = molecular target: T2, cytochrome P450 2C9-isoenzyme (Homo sapiens, UniProt P11712); assay: Inhibition of CYP-2C9 (diclofenac hydroxylation, human liver microsomes); type: in vitro ADME; conditions: human liver microsomes 0.1 mg/mL, diclofenac 10 μM, 37° C.
T2 construct: is assayed at 37° C. with human liver microsomes; from tissue; host or cells: human liver microsomes
T2 sequence (P11712 whole entry): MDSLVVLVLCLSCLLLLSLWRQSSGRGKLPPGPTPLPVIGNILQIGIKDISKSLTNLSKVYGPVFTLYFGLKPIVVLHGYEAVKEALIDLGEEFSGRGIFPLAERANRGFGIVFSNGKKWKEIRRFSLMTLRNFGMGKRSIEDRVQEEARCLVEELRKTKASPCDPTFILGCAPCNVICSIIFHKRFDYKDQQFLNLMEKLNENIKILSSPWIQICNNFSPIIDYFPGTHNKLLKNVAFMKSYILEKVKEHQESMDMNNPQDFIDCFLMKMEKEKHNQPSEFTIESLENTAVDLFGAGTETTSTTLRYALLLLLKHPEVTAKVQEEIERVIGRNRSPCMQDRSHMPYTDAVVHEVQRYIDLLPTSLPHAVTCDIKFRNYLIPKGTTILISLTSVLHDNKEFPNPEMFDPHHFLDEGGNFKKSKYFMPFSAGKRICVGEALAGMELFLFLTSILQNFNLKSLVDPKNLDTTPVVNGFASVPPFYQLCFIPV
Method: (§1) All assays are carried out on a robotic system in 96 well plates. The final incubation volume contains TRIS buffer (0.1 M), MgCl2 (5 mM), human liver microsomes (0.1 mg/mL), diclofenac (10 μM) and the test compound at five different concentrations or no compound (high control) in duplicate (e.g. highest concentration 10-50 μM with subsequent serial 1:4 dilutions). Following a short preincubation period, reactions are started with the cofactor (NADPH, 1 mM) and stopped by cooling the incubation down to 8° C. and subsequently by addition of one volume of acetonitrile. An internal standard solution—the stable isotope 13C6-hydroxydiclofenac—is added after quenching of incubations. Peak area analyte (=metabolite formed) and internal standard is determined by LC-MS/MS. The resulting peak area ratio analyte to internal standard in these incubations is compared to a control activity containing no test compound. Within each of the assay runs, the IC50 of a positive control inhibitor (sulfaphenazole) is determined. Experimental IC50 values are calculated by least square regression according to the following equation: % control activity=(100% control activity/(1+(I/IC50)S)))−B with I=inhibitor concentration S=slope factor B=background activity (lower plateau of the inhibition curve) If the inhibition of the reaction is already >50% at the lowest concentration of the test compound, the IC50 is assigned “<lowest concentration tested” (usually <0.4 μM). If the inhibition of the reaction is still <50% at the highest concentration of the test compound, the IC50 is assigned “>highest concentration tested” (usually >50 μM).

human GPR40 receptor = human GPR40 receptor (Homo sapiens, UniProt O14842); assay: IP1 accumulation measurements using the IPOne assay system; type: cell-based; conditions: 1321N1 cells stably expressing human GPR40; 1 h stimulation at 37° C.
human GPR40 receptor, sequence (O14842 whole entry): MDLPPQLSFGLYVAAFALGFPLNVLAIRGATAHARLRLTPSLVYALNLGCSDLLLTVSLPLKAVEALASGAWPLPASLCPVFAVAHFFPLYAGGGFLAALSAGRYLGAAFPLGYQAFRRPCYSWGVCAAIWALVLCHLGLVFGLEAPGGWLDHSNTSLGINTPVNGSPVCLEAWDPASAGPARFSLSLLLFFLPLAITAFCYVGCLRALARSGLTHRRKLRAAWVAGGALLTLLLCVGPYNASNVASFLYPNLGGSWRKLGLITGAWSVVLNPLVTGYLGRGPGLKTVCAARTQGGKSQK
Method: IP1 accumulation measurements using the IPOne assay system—1321N1 cells stably expressing human GPR40 receptor (Euroscreen, Belgium) are seeded 24 h before the assay in white 384-well plates in culture medium containing 10% FCS, 1% Na-Pyruvate and 400 μg/mL G418. IP1 is assayed according to the manufacturer's description (Cisbio Bioassays, France). In brief, the assay is started by substitution of the culture medium by stimulation buffer (Hepes 10 mM, CaCl2 1 mM, MgCl2 0.5 mM, KCl 4.2 mM, NaCl 146 mM, glucose 5.5 mM and LiCl 50 mM, pH 7.4). Cells are stimulated for 1 h at 37° C., 5% CO2 by addition of the compounds that are diluted in stimulation buffer containing LiCl. Assays are stopped by adding HTRF-conjugates (IP1-d2 and Anti-IP1 cryptate Tb) and lysis buffer, provided by the manufacturer. After an incubation time of 1 h at room temperature plates are measured using an EnVision™, Perkin Elmer. The obtained fluorescence ratios at 665/615 […] are then used to calculate the pEC50 values using Assay Explorer 3.3 Software (Accelrys, Inc.) by interpolation using an IP1 reference curve and subsequent sigmoidal curve fitting allowing for a variable hill slope.

CYP2C9 = molecular target: T3, CYP2C9 (Homo sapiens, UniProt P11712); assay: Inhibition of CYP-2C9 (diclofenac hydroxylation, human liver microsomes); type: in vitro ADME; conditions: probe diclofenac (10 μM), hydroxylation, human liver microsomes 0.1 mg/mL, 37° C.
T3 construct: from tissue; host or cells: human liver microsomes
T3 sequence (P11712 whole entry): as the sequence (P11712 whole entry) above
Method: as §1

In the case of `Cc1cc(OCCCS(C)(=O)=O)cc(C)c1-c1cccc2c1CC[C@H]2Oc1ccc2c(c1)OC[C@H]2CC(=O)O` [2 (WO 2013/144098), reference compound], the IC50 [1] is reported as 19 µM and the “Amount of degradation after 2 h” value [2] is reported as 94%.

For `Cc1cc(OCCC(C)(C)O)cc(C)c1-c1ccc(F)c2c1CC[C@H]2Oc1ccc2c(c1)OC[C@H]2CC(=O)O` [4 (WO 2013/144097), reference compound], the IC50 [1] was 6 µM, the “Amount of degradation after 2 h” value [2] was 13% and the solubility at 24 h [3] was less than 1 µg/mL. For the same molecule, the IC50 [4] was 21 µM.

With `Cc1cc(-c2nnn(C)n2)cc(C)c1-c1ccc(F)c2c1CC[C@H]2Oc1ccc2c(c1)OC[C@H]2CC(=O)O` [95 (WO 2013/144097), reference compound] the IC50 [1] was 9 µM, the “Amount of degradation after 2 h” value [2] was 4% and the solubility at 24 h [3] was less than 1 µg/mL. It also gave an IC50 [4] of 19 µM.

With `Cc1cc(OCCC(C)(C)O)cc(C)c1-c1ccc(F)c2c1CC[C@H]2Nc1cnc2c(c1)OC[C@H]2CC(=O)O` [Example 2, 2-[(3S)-6-{[(1R)-7-Fluoro-4-[4-(3-hydroxy-3-methylbutoxy)-2,6-dimethylphenyl]-2,3-dihydro-1H-inden-1-yl]amino}-2H,3H-furo[3,2-b]pyridin-3-yl]acetic acid] the EC50 (human GPR40 receptor) was 61 nM, the IC50 [1] was 32 µM and the “Amount of degradation after 2 h” value [2] was 0.2%. For the same molecule, the solubility at 24 h [3] was 60 µg/mL (≈ 112 µM) and the IC50 [4] was greater than 50 µM.

In the case of `Cc1cc(-c2nnn(C)n2)cc(C)c1-c1cccc2c1CC[C@H]2Nc1cnc2c(c1)OC[C@H]2CC(=O)O` [Example 3, 2-[(3S)-6-{[(1R)-4-[2,6-Dimethyl-4-(2-methyl-2H-1,2,3,4-tetrazol-5-yl)phenyl]-2,3-dihydro-1H-inden-1-yl]amino}-2H,3H-furo[3,2-b]pyridin-3-yl]acetic acid], the EC50 (human GPR40 receptor) is reported as 42 nM, the IC50 [1] is reported as 29 µM and the “Amount of degradation after 2 h” value [2] is reported as less than 0.5%. The solubility at 24 h [3] was 6 µg/mL (≈ 12.1 µM) and the IC50 [4] was greater than 50 µM.

With `Cc1cc(OCCC(C)(C)O)cc(C)c1-c1cccc2c1CC[C@H]2Nc1cnc2c(c1)OC[C@H]2CC(=O)O` [Example 4, 2-[(3S)-6-{[(1R)-4-[4-(3-Hydroxy-3-methylbutoxy)-2,6-dimethylphenyl]-2,3-dihydro-1H-inden-1-yl]amino}-2H,3H-furo[3,2-b]pyridin-3-yl]acetic acid] the EC50 (human GPR40 receptor) was 64 nM, the IC50 [1] was 43 µM and the “Amount of degradation after 2 h” value [2] was less than 0.5%. For the same molecule, the solubility at 24 h [3] was 57 µg/mL (≈ 110 µM) and the IC50 [4] was greater than 50 µM.

With `Cc1cc(-c2nnn(C)n2)cc(C)c1-c1ccc(F)c2c1CC[C@H]2Nc1cnc2c(c1)OC[C@H]2CC(=O)O` [Example 5, 2-[(3S)-6-{[(1R)-4-[2,6-Dimethyl-4-(2-methyl-2H-1,2,3,4-tetrazol-5-yl)phenyl]-7-fluoro-2,3-dihydro-1H-inden-1-yl]amino}-2H,3H-furo[3,2-b]pyridin-3-yl]acetic acid] the EC50 (human GPR40 receptor) was 26 nM, the IC50 [1] was 22 µM and the “Amount of degradation after 2 h” value [2] was 0.4%. For the same molecule, the solubility at 24 h [3] was 7 µg/mL (≈ 13.6 µM) and the IC50 [4] was 48 µM.

For `CC(C)c1ccccc1-c1cccc2c1CC[C@H]2Nc1cnc2c(c1)OCC2CC(=O)O` (stereo partly drawn) [Example 129, 2-(6-{[(1R)-4-[2-(Propan-2-yl)phenyl]-2,3-dihydro-1H-inden-1-yl]amino}-2H,3H-furo[3,2-b]pyridin-3-yl)acetic acid], the EC50 (human GPR40 receptor) was 184 nM, the IC50 [1] was 12 µM and the solubility at 24 h [3] was 4 µg/mL (≈ 9.33 µM). The IC50 (CYP2C9) was 50 µM.

With `N#CC1(c2ccccc2-c2cccc3c2CC[C@H]3Nc2cnc3c(c2)OCC3CC(=O)O)CC1` (stereo partly drawn) [Example 131, 2-(6-{[(1R)-4-[2-(1-Cyanocyclopropyl)phenyl]-2,3-dihydro-1H-inden-1-yl]amino}-2H,3H-furo[3,2-b]pyridin-3-yl)acetic acid] the EC50 (human GPR40 receptor) was 6390 nM, the IC50 [1] was 37 µM and the solubility at 24 h [3] was 67 µg/mL (≈ 148 µM). For the same molecule, the IC50 [4] was greater than 50 µM.

With `Cc1nc(-c2cc(C)c(-c3cccc4c3CC[C@H]4Nc3cnc4c(c3)OCC4CC(=O)O)c(C)c2)no1` (stereo partly drawn) [Example 132, 2-(6-{[(1R)-4-[2,6-Dimethyl-4-(5-methyl-1,2,4-oxadiazol-3-yl)phenyl]-2,3-dihydro-1H-inden-1-yl]amino}-2H,3H-furo[3,2-b]pyridin-3-yl)acetic acid] the EC50 (human GPR40 receptor) was 36 nM, the IC50 [1] was 23 µM and the solubility at 24 h [3] was 3 µg/mL (≈ 6.04 µM). It also gave an IC50 [4] greater than 50 µM.

In the case of `Cc1cc(-c2cc(=O)n(C)cn2)cc(C)c1-c1cccc2c1CC[C@H]2Nc1cnc2c(c1)OCC2CC(=O)O` (stereo partly drawn) [Example 133, 2-(6-{[(1R)-4-[2,6-Dimethyl-4-(1-methyl-6-oxo-1,6-dihydropyrimidin-4-yl)phenyl]-2,3-dihydro-1H-inden-1-yl]amino}-2H,3H-furo[3,2-b]pyridin-3-yl)acetic acid], the EC50 (human GPR40 receptor) is reported as 33 nM, the IC50 [1] is reported as 21 µM and the solubility at 24 h [3] is reported as 78 µg/mL (≈ 149 µM). It also gave an IC50 [4] greater than 50 µM.

From US20180354962A1, “[{[2,3-Dihydro-1H-inden-1-yl]amino}-2H,3H-furo[3,2-b]pyridin-3-yl]acetic acids, pharmaceutical compositions and uses thereof” (Boehringer Ingelheim International GmbH, priority 2015, published 2018)
